The values that follow come from patent publication US8637481B2, “Sensitizing agents for cancer therapy, methods of use and methods for the identification thereof” (University Health Network, priority 2009, dated 2014).

The subject of data set [1] is FaDu cells. Kind of data set: Cell viability assay (MTS). The data set is classed as cell-based, human. To be noted: IR 4 Gy, 96 h post-IR, siRNA 48 h transfection, ALA 250-1000 μM 4 h. The text has this: The CeliTiter 96 AQueous One Solution Cell Proliferation Assay (3-(4,5-dimethylthiazol-2-yl)-5-(3-carboxymethoxyphenyl)-2-(4-sulfophenyl)-2H-tetrazolium, inner salt MTS (Promega, Madison, Wis.) was used to detect cell viability according to the manufacturer's specifications.

In data set [2] the test system is FaDu cells. Kind of data set: Apoptotic fraction by flow cytometry post-IR. The data set is classed as cell-based, human. To be noted: deferoxamine 5 μM pre-treatment 24 h before IR 4 Gy, 72 h post-IR. As for the experimental part: Flow cytometric analyses were performed on a FACSCalibur Flow Cytometer (BD Biosciences, San Jose, Calif.), equipped with FlowJo software (Tree Star, Ashland, Oreg.). Cell cycle distributions, caspase activation, and mitochondrial membrane potentials were measured as previously described. Intracellular ROS levels were quantified using the non-specific 5-(and 6-)chloromethyl-2′,7′-dichlorodihydrofluorescein diacetate (CM-H2DCFDA) dye, and the superoxide-selective dihydroethidium (DE) dye as instructed by the manufacturer (Invitrogen).
Transfected cells were immediately exposed to a continuous flow of humidified 0.2% O2 with 5% CO2 and balanced N2 (Praxair, Ontario, Canada) in an In Vivo2 400 Hypoxia Chamber (Ruskinn Technology, Pencoed, UK). An OxyLite 4000 oxygen-sensing probe (Oxford Optronix, Oxford, UK) was used to verify target O2 levels.
A general note: Flow cytometry measures light scatter and fluorescence of single cells or particles in a stream.

As for `Cl.NCC(=O)CCC(=O)O` [ALA, δ-aminolevulinic acid hydrochloride], the “cytotoxicity plus IR (cell viability, MTS)” value with FaDu cells [1] is “negligible effects”. Take deferoxamine mesylate salt: in the data set with FaDu cells [2], the siUROD-plus-IR-induced apoptosis result is “significant suppression”.
